# Test results published in US20080194546A1, “Pyrido-, Pyrazo- and Pyrimido-Pyrimidine Derivatives as mTOR Inhibitors” (KuDOS Pharmaceuticals Limited, priority 2005, published 2008).
# Biological target: recombinant mTOR (FLAG-tagged, amino acid residues 1362 to 2549) (Homo sapiens, UniProt P42345)
# Assay: Alternative Enzyme Assay: AlphaScreen, inhibition of phosphorylation by recombinant mTOR
# Assay type: biochemical
# Settings: Alternative Enzyme Assay, upper bounds; read-out: IC50 values against mTOR
# recombinant mTOR (FLAG-tagged, amino acid residues 1362 to 2549), sequence (P42345 1362-2549): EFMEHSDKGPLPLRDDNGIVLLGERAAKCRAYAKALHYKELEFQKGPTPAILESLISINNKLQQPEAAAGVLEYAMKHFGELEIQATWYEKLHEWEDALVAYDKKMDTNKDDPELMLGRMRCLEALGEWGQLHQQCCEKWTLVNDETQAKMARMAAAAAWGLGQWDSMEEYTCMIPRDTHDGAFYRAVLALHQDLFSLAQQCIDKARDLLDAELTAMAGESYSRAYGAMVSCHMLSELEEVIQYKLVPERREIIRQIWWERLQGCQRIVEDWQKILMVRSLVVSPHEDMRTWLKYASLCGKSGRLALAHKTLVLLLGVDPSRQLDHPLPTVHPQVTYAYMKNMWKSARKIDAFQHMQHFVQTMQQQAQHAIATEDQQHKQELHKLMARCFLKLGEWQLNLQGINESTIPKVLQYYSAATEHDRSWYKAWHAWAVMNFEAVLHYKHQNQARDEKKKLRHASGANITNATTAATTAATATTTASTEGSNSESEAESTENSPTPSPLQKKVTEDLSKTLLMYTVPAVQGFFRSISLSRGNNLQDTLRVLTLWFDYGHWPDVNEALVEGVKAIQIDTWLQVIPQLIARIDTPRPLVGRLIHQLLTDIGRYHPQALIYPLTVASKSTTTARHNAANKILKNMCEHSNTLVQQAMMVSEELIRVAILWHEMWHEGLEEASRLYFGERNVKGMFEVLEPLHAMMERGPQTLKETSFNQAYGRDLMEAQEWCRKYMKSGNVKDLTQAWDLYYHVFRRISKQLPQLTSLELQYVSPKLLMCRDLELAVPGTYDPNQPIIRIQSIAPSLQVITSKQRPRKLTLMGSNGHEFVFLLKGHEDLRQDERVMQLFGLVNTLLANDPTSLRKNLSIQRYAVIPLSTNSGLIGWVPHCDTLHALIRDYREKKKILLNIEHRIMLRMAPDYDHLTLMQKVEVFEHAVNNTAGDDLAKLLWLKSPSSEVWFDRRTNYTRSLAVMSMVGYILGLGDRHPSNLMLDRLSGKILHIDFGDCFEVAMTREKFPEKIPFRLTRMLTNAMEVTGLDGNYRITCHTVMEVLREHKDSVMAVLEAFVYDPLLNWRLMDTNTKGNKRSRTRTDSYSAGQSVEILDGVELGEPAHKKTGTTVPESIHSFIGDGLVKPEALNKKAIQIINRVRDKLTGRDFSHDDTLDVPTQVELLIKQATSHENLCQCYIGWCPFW
row,SMILES,IC50 [µM]
1,C[C@@H]1CN(c2nc(N3CCOCC3)c3ccc(-c4ccc(OCC5CCCCC5)cc4)nc3n2)C[C@H](C)O1 [Example 1bk],< 1
2,C[C@@H]1CN(c2nc(N3CCOCC3)c3ccc(-c4ccc(OC5C=CCCC5)cc4)nc3n2)C[C@H](C)O1 (stereo partly shown) [Example 1bl],< 10
3,C[C@@H]1CN(c2nc(N3CCOCC3)c3ccc(-c4ccc(OCCCO)cc4)nc3n2)C[C@H](C)O1 [Example 1bm],< 1
4,CCCOc1ccc(-c2ccc3c(N4CCOCC4)nc(N4C[C@@H](C)O[C@@H](C)C4)nc3n2)cc1 [Example 1bn],< 1
5,C[C@@H]1CN(c2nc(N3CCOCC3)c3ccc(-c4ccc(OCC(C)(C)C)cc4)nc3n2)C[C@H](C)O1 [Example 1bo],< 1
6,C[C@@H]1CN(c2nc(N3CCOCC3)c3ccc(-c4ccc(OCC(C)(C)CO)cc4)nc3n2)C[C@H](C)O1 [Example 1bp],< 1
7,C/C=C/COc1ccc(-c2ccc3c(N4CCOCC4)nc(N4C[C@@H](C)O[C@@H](C)C4)nc3n2)cc1 [Example 1bq],< 1
8,C[C@@H]1CN(c2nc(N3CCOCC3)c3ccc(-c4ccc(OCC5CCCO5)cc4)nc3n2)C[C@H](C)O1 (stereo partly shown) [Example 1bt],< 1
9,CC(Oc1ccc(-c2ccc3c(N4CCOCC4)nc(N4C[C@@H](C)O[C@@H](C)C4)nc3n2)cc1)c1ccccc1 (stereo partly shown) [Example 1bv],< 10
10,C[C@@H]1CN(c2nc(N3CCOCC3)c3ccc(-c4ccc(OCc5ccc(F)c(F)c5)cc4)nc3n2)C[C@H](C)O1 [Example 1bw],< 10
11,CC(C)CCCOc1ccc(-c2ccc3c(N4CCOCC4)nc(N4C[C@@H](C)O[C@@H](C)C4)nc3n2)cc1 [Example 1bx],< 10
12,N#Cc1cccc(-c2nc(N3CCOCC3)c3ccc(-c4ccc(Cl)cc4)nc3n2)c1 [Example 9ab],< 10
13,NC(=O)c1cccc(-c2nc(N3CCOCC3)c3ccc(-c4ccc(Cl)cc4)nc3n2)c1 [Example 9ac],< 10
14,COC(=O)c1cccc(-c2nc(N3CCOCC3)c3ccc(-c4ccc(Cl)cc4)nc3n2)c1 [Example 9ad],< 1
15,COc1ccc(-c2ccc3c(N4CCOCC4)nc(-c4cccc(CO)c4)nc3n2)cc1CO [Example 9ae],< 10
16,COc1ccc(-c2ccc3c(N4CCOCC4)nc(-c4cc(C(=O)O)cc([N+](=O)[O-])c4)nc3n2)cc1CO [Example 9b],< 10
17,COc1ccc(-c2ccc3c(N4CCOCC4)nc(-c4cccc([N+](=O)[O-])c4)nc3n2)cc1CO [Example 9c],< 10
18,COc1ccc(-c2ccc3c(N4CCOCC4)nc(-c4cccc(-c5ccccc5)c4)nc3n2)cc1CO [Example 9o],< 10
19,FC(F)(F)c1cccc(-c2nc(N3CCOCC3)c3ccc(-c4ccc(Cl)cc4)nc3n2)c1 [Example 9p],< 1
20,COc1ccc(-c2ccc3c(N4CCOCC4)nc(-c4ccc(OC)c(CO)c4)nc3n2)cc1CO [Example 9q],< 10
21,C[C@@H]1CN(c2ccc3c(N4CCOCC4)nc(-c4ccc(Cl)cc4)nc3n2)C[C@H](C)O1 [Example 9s],< 10
22,Clc1ccc(-c2ccc3c(N4CCOCC4)nc(-c4cccnc4)nc3n2)cc1 [Example 9t],< 10
23,COc1cccc(-c2nc(N3CCOCC3)c3ccc(-c4ccc(Cl)cc4)nc3n2)c1 [Example 9u],< 10
24,O=[N+]([O-])c1cccc(-c2nc(N3CCOCC3)c3ccc(-c4ccc(Cl)cc4)nc3n2)c1 [Example 9v],< 10

# Same assay, conditions: Alternative Enzyme Assay; read-out: IC50 values against mTOR
row,SMILES,IC50 [µM]
1,C[C@@H]1CN(c2nc(N3CCOCC3)c3ccc(-c4ccc(OCc5ccccc5)cc4)nc3n2)C[C@H](C)O1 [Example 1bf],< 0.3
2,COc1ccc(-c2ccc3c(N4CCOCC4)nc(-c4cccc(CO)c4)nc3n2)cc1CO [Example 9ae],< 0.3
3,COc1ccc(-c2ccc3c(N4CCOCC4)nc(-c4cc(C(=O)O)cc([N+](=O)[O-])c4)nc3n2)cc1CO [Example 9b],< 0.3
4,COc1ccc(-c2ccc3c(N4CCOCC4)nc(-c4cccc([N+](=O)[O-])c4)nc3n2)cc1CO [Example 9c],< 0.3

# System: phosphorylation of Serine 473 in Akt in MDA-MB-468 cells
# Assay: In Vitro phospho-Ser473 Akt Assay (Acumen Explorer)
# Assay type: cell-based
# Settings: Homo sapiens, MDA-MB-468, read-out: IC50 values against mTOR (phospho-Ser473 Akt assay)
row,SMILES,IC50 [µM]
1,CC(=O)N(C)Cc1ccc(-c2ccc3c(N4CCOC[C@@H]4C)nc(N4CCOC[C@@H]4C)nc3n2)cc1 [Example 15r],< 11
2,CC(=O)NCc1cc(-c2ccc3c(N4CCOC[C@@H]4C)nc(N4CCOC[C@@H]4C)nc3n2)ccc1F [Example 15t],< 11
3,COCC(=O)NCc1cc(-c2ccc3c(N4CCOC[C@@H]4C)nc(N4CCOC[C@@H]4C)nc3n2)ccc1F [Example 15u],< 11
4,CC(C)C(=O)NCc1cc(-c2ccc3c(N4CCOC[C@@H]4C)nc(N4CCOC[C@@H]4C)nc3n2)ccc1F [Example 15w],< 11
5,C[C@H]1COCCN1c1nc(N2CCOC[C@@H]2C)c2ccc(-c3ccc(F)c(CNC(=O)C4CCC4)c3)nc2n1 [Example 15x],< 11
6,CC(C)CC(=O)NCc1cc(-c2ccc3c(N4CCOC[C@@H]4C)nc(N4CCOC[C@@H]4C)nc3n2)ccc1F [Example 15y],< 11
7,C[C@H]1COCCN1c1nc(N2CCOC[C@@H]2C)c2ccc(-c3ccc(F)c(CNC(=O)C(F)(F)F)c3)nc2n1 [Example 15z],< 11
8,C[C@H]1COCCN1c1nc(N2CCOC[C@@H]2C)c2ccc(-c3ccc(CNC4CC4)o3)nc2n1 [Example 17e],< 11
9,C[C@H]1COCCN1c1nc(N2CCOC[C@@H]2C)c2ccc(-c3ccc(CNc4cc[nH]n4)o3)nc2n1 [Example 17i],< 11
10,C[C@H]1COCCN1c1nc(N2CCOC[C@@H]2C)c2ccc(-c3ccc(CNCC(N)=O)o3)nc2n1 [Example 17j],< 11
11,Cc1ccc(-c2cnc3c(N4CCOC[C@@H]4C)nc(N4C[C@@H](C)O[C@@H](C)C4)nc3n2)cc1 [Example 22b],< 11
12,COC(=O)[C@@H]1C[C@@H](O)CN1c1nc(N2CCOC[C@@H]2C)c2ccc(-c3ccc(OC)c(CO)c3)nc2n1 [Example 28aa],< 11
13,COc1ccc(-c2ccc3c(N4CCOC[C@@H]4C)nc(N4CCC5CCCCC5C4)nc3n2)cc1CO (stereo partly shown) [Example 28ag],< 11
14,COc1ccc(-c2ccc3c(N4CCOC[C@@H]4C)nc(N4CCC(N5CCCC5)CC4)nc3n2)cc1CO [Example 28ai],< 11
15,COc1ccc(-c2ccc3c(N4CCOC[C@@H]4C)nc(N4CCC(Cc5ccccc5)CC4)nc3n2)cc1CO [Example 28al],< 11
16,COC(=O)c1cncn1-c1nc(N2CCOC[C@@H]2C)c2ccc(-c3ccc(OC)c(CO)c3)nc2n1 [Example 28az],< 11
17,COc1ccc(-c2ccc3c(N4CCOC[C@@H]4C)nc(NCCO)nc3n2)cc1CO [Example 28bs],< 11
18,CNCCNc1nc(N2CCOC[C@@H]2C)c2ccc(-c3ccc(OC)c(CO)c3)nc2n1 [Example 28bv],< 11
19,COCCNc1nc(N2CCOC[C@@H]2C)c2ccc(-c3ccc(OC)c(CO)c3)nc2n1 [Example 28by],< 11
20,COc1ccc(-c2ccc3c(N4CCOC[C@@H]4C)nc(NCCN(C)C)nc3n2)cc1CO [Example 28cb],< 11
21,COc1ccc(-c2ccc3c(N4CCOC[C@@H]4C)nc(N4CCN(CCO)CC4)nc3n2)cc1CO [Example 28ci],< 0.3

row,SMILES,IC50 [µM]
1,COc1ccc(-c2ccc3c(N4CCOC[C@@H]4C)nc(NC(C)CN(C)C)nc3n2)cc1CO (stereo partly shown) [Example 28ct],< 11
2,CCOc1nc(N2CCOC[C@@H]2C)c2ccc(-c3ccc(OC)c(CO)c3)nc2n1 [Example 28cv],< 11
3,C[C@H]1CCCCN1c1nc(N2CCOC[C@@H]2C)c2ccc(-c3ccc(Cl)cc3)nc2n1 [Example 28de],< 11
4,C[C@@H]1CCCCN1c1nc(N2CCOC[C@@H]2C)c2ccc(-c3ccc(Cl)cc3)nc2n1 [Example 28dg],< 11
5,C[C@H]1COCCN1c1nc(N2CCC(C(N)=O)CC2)nc2nc(-c3ccc(Cl)cc3)ccc12 [Example 28dj],< 11
6,COc1ccc(-c2ccc3c(N4CCOC[C@@H]4C)nc(N4CCCC(c5ccccc5)C4)nc3n2)cc1CO (stereo partly shown) [Example 28j],< 11
7,COc1ccc(-c2ccc3c(N4CCOC[C@@H]4C)nc(Nc4ccncn4)nc3n2)cc1CO [Example 28n],< 11
8,COc1ccc(-c2ccc3c(N4CCOC[C@@H]4C)nc(Nc4cccnc4)nc3n2)cc1CO [Example 28o],< 11
9,COc1ccc(-c2ccc3c(N4CCOC[C@@H]4C)nc(N4CCC(N5CCCCC5)CC4)nc3n2)cc1CO [Example 28z],< 11
10,COc1ccc(-c2ccc3c(N4CCOC[C@@H]4C)nc(-c4cccc(CN)c4)nc3n2)cc1CO [Example 29e],< 11
11,COC(=O)c1cccc(-c2nc(N3CCOC[C@@H]3C)c3ccc(-c4ccc(OC)c(CO)c4)nc3n2)c1 [Example 29h],< 11
12,COc1ccc(-c2ccc3c(N4CCOC[C@@H]4C)nc(-c4cccc([N+](=O)[O-])c4)nc3n2)cc1CO [Example 29i],< 11
13,COCc1cccc(-c2nc(N3CCOC[C@@H]3C)c3ccc(-c4ccc(OC)c(CO)c4)nc3n2)c1 [Example 29l],< 11
14,COc1ccc(-c2ccc3c(N4CCOC[C@@H]4C)nc(-c4cccc(C(F)(F)F)c4)nc3n2)cc1CO [Example 29m],< 11
15,COc1ccc(-c2ccc3c(N4CCOC[C@@H]4C)nc(-c4cccc(C)c4)nc3n2)cc1CO [Example 29n],< 11
16,COc1cccc(-c2nc(N3CCOC[C@@H]3C)c3ccc(-c4ccc(OC)c(CO)c4)nc3n2)c1 [Example 29o],< 11
17,C[C@H]1COCCN1c1nc(-c2ccncc2)nc2nc(-c3cccc(CO)c3)ccc12 [Example 29q],< 11
18,COc1cncc(-c2nc(N3CCOC[C@@H]3C)c3ccc(-c4cccc(CO)c4)nc3n2)c1 [Example 29s],< 11
19,C[C@H]1COCCN1c1nc(-c2cccnc2F)nc2nc(-c3cccc(CO)c3)ccc12 [Example 29u],< 11
20,C[C@H]1COCCN1c1nc(-c2cnn(C)c2)nc2nc(-c3cccc(CO)c3)ccc12 [Example 29v],< 11
21,Cc1nn(C)c(C)c1-c1nc(N2CCOC[C@@H]2C)c2ccc(-c3cccc(CO)c3)nc2n1 [Example 29w],< 11

# Same assay, conditions: Homo sapiens; MDA-MB-468 cells, 2 hours; read-out: IC50, phospho-Ser473 Akt assay (cellular IC50, measured by pAkt)
row,SMILES,IC50 [µM]
1,CC(C)S(=O)(=O)Nc1cccc(-c2ccc3c(N4CCOC[C@@H]4C)nc(N4CCOC[C@@H]4C)nc3n2)c1 [Example 25b],0.505
2,CNC(=O)C1CCN(c2nc(N3CCOC[C@@H]3C)c3ccc(-c4ccc(N)nc4)nc3n2)CC1 [Example 28dk],0.682
3,C[C@H]1COCCN1c1nc(N2CCOCC2)nc2nc(-c3ccc(N)nc3)ccc12 [Example 28dl],0.295
